These are literature values, as cited in patent US10729793B2, “Method for imaging arthritis” (GUY'S AND ST THOMAS' HOSPITAL NHS FOUNDATION TRUST, priority 2015, dated 2020).

The target of one data set is αvβ3 integrin (Homo sapiens, UniProt P05106+P06756). The settings on record: in vitro studies.
The conditions of data set [1]: 10 subjects, at 4 months.
For data set [2] the following is noted: healthy volunteers.

*1 amine or outer side, *2 acyl side, *3 side chain or, on linkers, in order; H or OH if unused. Where a SMILES comes first, the peptide text is derived from it. Bridges are numbered along the chain shown (N, C = ends). Side-chain parts run from the residue outwards. The star is where a group is joined. X1 = C/C(=N/O)C(C)(C)NCCC(CCNC(C)(C)/C(C)=N\O)CCN*; Glutaryl = O=C(CCCC(=O)[*:2])[*:1]; X2 = NC(=O)COCC(=O)NCCOCCOCCOCCN*

Sequence of αvβ3 integrin (P06756 31-889 limits assumed): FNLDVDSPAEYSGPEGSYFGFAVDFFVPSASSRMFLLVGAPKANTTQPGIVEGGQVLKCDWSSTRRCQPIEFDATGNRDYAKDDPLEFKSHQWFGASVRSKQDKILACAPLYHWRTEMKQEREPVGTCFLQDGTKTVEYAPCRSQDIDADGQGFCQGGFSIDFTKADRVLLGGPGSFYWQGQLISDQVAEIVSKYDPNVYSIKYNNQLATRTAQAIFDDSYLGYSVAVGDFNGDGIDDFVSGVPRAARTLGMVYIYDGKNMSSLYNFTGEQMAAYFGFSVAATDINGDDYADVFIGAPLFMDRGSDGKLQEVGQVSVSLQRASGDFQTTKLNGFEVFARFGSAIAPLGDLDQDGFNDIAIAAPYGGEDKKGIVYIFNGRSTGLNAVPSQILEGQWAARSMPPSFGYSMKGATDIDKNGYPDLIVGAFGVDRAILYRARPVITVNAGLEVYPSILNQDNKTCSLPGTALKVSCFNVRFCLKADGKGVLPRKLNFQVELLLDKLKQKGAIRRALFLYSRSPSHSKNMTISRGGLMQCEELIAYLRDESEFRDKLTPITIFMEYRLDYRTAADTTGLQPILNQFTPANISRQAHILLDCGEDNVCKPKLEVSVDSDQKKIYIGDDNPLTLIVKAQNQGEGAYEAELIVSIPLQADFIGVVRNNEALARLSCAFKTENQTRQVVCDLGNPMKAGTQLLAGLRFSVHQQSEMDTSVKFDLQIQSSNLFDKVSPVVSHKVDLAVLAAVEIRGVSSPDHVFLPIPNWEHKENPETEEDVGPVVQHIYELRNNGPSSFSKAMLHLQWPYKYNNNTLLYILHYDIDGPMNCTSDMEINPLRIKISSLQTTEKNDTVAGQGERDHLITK
Sequence of αvβ3 integrin (P06756 891-1048 partner limits assumed): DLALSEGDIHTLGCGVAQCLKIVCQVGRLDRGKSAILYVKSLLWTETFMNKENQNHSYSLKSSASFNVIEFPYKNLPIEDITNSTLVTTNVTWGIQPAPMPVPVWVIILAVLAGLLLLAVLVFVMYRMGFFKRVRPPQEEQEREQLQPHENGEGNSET
Sequence of αvβ3 integrin (P05106 27-788): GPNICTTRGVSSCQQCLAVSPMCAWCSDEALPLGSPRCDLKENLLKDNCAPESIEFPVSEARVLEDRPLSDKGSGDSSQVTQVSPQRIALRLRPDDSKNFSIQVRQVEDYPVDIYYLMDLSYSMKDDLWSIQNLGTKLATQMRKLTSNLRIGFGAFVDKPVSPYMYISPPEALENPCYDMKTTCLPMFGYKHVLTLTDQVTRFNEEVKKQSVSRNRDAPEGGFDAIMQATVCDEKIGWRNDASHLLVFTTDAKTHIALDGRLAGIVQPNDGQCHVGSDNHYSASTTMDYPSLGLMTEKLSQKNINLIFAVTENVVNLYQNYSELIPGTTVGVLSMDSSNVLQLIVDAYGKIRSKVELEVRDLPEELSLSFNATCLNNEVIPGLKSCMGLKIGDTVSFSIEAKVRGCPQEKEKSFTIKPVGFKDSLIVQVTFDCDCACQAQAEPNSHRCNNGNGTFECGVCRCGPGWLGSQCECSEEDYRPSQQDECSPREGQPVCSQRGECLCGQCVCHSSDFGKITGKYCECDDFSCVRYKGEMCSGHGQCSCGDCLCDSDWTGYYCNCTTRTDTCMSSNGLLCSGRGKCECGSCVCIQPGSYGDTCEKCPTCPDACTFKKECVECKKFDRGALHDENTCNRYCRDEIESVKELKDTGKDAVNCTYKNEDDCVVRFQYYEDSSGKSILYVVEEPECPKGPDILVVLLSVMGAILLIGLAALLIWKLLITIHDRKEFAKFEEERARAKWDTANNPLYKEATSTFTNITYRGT

In the case of `C/C(=N/O)C(C)(C)NCCC(CCNC(=O)CCCC(=O)NCCCC[C@@H]1NC(=O)CSC[C@@H](C(=O)NCCOCCOCCOCCNC(=O)COCC(N)=O)NC(=O)[C@H](Cc2ccccc2)NC(=O)[C@@H]2CSSC[C@H](NC1=O)C(=O)N[C@@H](CCCNC(=N)N)C(=O)NCC(=O)N[C@@H](CC(=O)O)C(=O)N2)CCNC(C)(C)/C(C)=N\O` (stereo partly drawn) [NC100692, maraciclatide] ({CH2CO}-K([Glutaryl-X1])CRGDCFC-X2; disulfide 2-6; thioether N-8), the “binding affinity for the αvβ3 integrin” value on αvβ3 integrin was “high binding affinity”. Moreover, the “antibodies to the peptide (immunogenicity)” value in data set [1] is “no detectable antibodies”. Further, the mean elimination half-life entry in data set [2] was “approximately one”.
